Assay results from patent publication US11541055B2, “Inhibitors of human immunodeficiency virus replication” (ViiV Healthcare UK (No. 5) LIMITED, priority 2018, dated 2023).

Columns and labels:
[1] = Compound cytotoxicity, XTT-based colorimetric assay; format: cell-based; conditions: human; uninfected MT2 cells, day 4, XTT
Outline: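 Run under the antiviral-assay protocol but without virus. Viability was read on day 4 and CC50 values were derived from the readout.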

[2] = tested on: recombinant NL4-3 virus (Renilla luciferase) in MT-2 cells; assay: HIV cell culture assay (antiviral activity, luciferase readout); format: cell-based; conditions: Renilla, NL43
Outline: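 Antiviral EC50 was derived via the median effect equation from luciferase signal. The signal came from MT-2 cultures infected for 4–5 days with a nef-deleted, Renilla luciferase-expressing NL4-3 reporter virus (made in 293T cells) in the presence of compound dilutions.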

SMILES	CC50 at 4 days [1] [nM]	EC50 [2] [nM]
CCc1ccnc(-c2ccc3c(=O)n(-c4ccc(Cl)c5c(NS(=O)(=O)C6CC6)nn(CC(F)F)c45)c([C@H](Cc4cc(F)cc(F)c4)NC(=O)Cn4nc(C(F)F)c5c4C(F)(F)[C@@H]4C[C@H]54)nc3c2)n1 (atropisomer, axis not shown; (P)) [Example 93, N—((S)-1-((3P)-3-(4-chloro-3-(cyclopropanesulfonamido)-1-(2,2-difluoroethyl)-1H-indazol-7-yl)-7-(4-ethylpyrimidin-2-yl)-4-oxo-3,4-dihydroquinazolin-2-yl)-2-(3,5-difluorophenyl)ethyl)-2-((3bS,4aR)-3-(difluoromethyl)-5,5-difluoro-3b,4,4a,5-tetrahydro-1H-cyclopropa[3,4]cyclopenta[1,2-c]pyrazol-1-yl)acetamide]	> 500	0.18
Cn1nc(NS(C)(=O)=O)c2c(Cl)ccc(-n3c([C@H](Cc4cc(F)cc(F)c4)NC(=O)Cn4nc(C(F)F)c5c4C(F)(F)[C@@H]4C[C@H]54)nc4cc(-c5nccnc5C5CC5)ccc4c3=O)c21 (atropisomer, axis not shown; (P)) [Example 61, N—((S)-1-((3P)-3-(4-chloro-1-methyl-3-(methylsulfonamido)-1H-indazol-7-yl)-7-(3-cyclopropylpyrazin-2-yl)-4-oxo-3,4-dihydroquinazolin-2-yl)-2-(3,5-difluorophenyl)ethyl)-2-((3bS,4aR)-3-(difluoromethyl)-5,5-difluoro-3b,4,4a,5-tetrahydro-1H-cyclopropa[3,4]cyclopenta[1,2-c]pyrazol-1-yl)acetamide]	> 500	0.16
Cc1ccc(F)c(-c2ccc3c(=O)n(-c4ccc(Cl)c5c(NS(C)(=O)=O)nn(C)c45)c([C@H](Cc4cc(F)cc(F)c4)NC(=O)Cn4nc(C(F)F)c5c4C(F)(F)[C@@H]4C[C@H]54)nc3c2)n1 (atropisomer, axis not shown; (P)) [Example 22, N—((S)-1-((3P)-3-(4-chloro-1-methyl-3-(methylsulfonamido)-1H-indazol-7-yl)-7-(3-fluoro-6-methylpyridin-2-yl)-4-oxo-3,4-dihydroquinazolin-2-yl)-2-(3,5-difluorophenyl)ethyl)-2-((3bS,4aR)-3-(difluoromethyl)-5,5-difluoro-3b,4,4a,5-tetrahydro-1H-cyclopropa[3,4]cyclopenta[1,2-c]pyrazol-1-yl)acetamide]	> 500	0.11
Cc1ncnc(C)c1-c1ccc2c(=O)n(-c3ccc(Cl)c4c(NS(C)(=O)=O)nn(C)c34)c([C@H](Cc3cc(F)cc(F)c3)NC(=O)Cn3nc(C(F)F)c4c3C(F)(F)[C@@H]3C[C@H]43)nc2c1 (atropisomer, axis not shown; (P)) [Example 40, N—((S)-1-((3P)-3-(4-chloro-1-methyl-3-(methylsulfonamido)-1H-indazol-7-yl)-7-(4,6-dimethylpyrimidin-5-yl)-4-oxo-3,4-dihydroquinazolin-2-yl)-2-(3,5-difluorophenyl)ethyl)-2-((3bS,4aR)-3-(difluoromethyl)-5,5-difluoro-3b,4,4a,5-tetrahydro-1H-cyclopropa[3,4]cyclopenta[1,2-c]pyrazol-1-yl)acetamide]	> 500	0.053
Cn1nc(NS(C)(=O)=O)c2c(Cl)ccc(-n3c([C@H](Cc4cc(F)cc(F)c4)NC(=O)Cn4nc(C(F)F)c5c4C(F)(F)[C@@H]4C[C@H]54)nc4cc(-c5cccc(C(F)(F)F)n5)ccc4c3=O)c21 (atropisomer, axis not shown; (P)) [Example 59, N—((S)-1-((3P)-3-(4-chloro-1-methyl-3-(methylsulfonamido)-1H-indazol-7-yl)-4-oxo-7-(6-(trifluoromethyl)pyridin-2-yl)-3,4-dihydroquinazolin-2-yl)-2-(3,5-difluorophenyl)ethyl)-2-((3bS,4aR)-3-(difluoromethyl)-5,5-difluoro-3b,4,4a,5-tetrahydro-1H-cyclopropa[3,4]cyclopenta[1,2-c]pyrazol-1-yl)acetamide]	> 500	0.12
CS(=O)(=O)Nc1nn(CC(F)(F)F)c2c(-n3c([C@H](Cc4cc(F)cc(F)c4)NC(=O)Cn4nc(C(F)F)c5c4C(F)(F)[C@@H]4C[C@H]54)nc4cc(-c5nccc(C(F)F)n5)ccc4c3=O)ccc(Cl)c12 (atropisomer, axis not shown) [Example 104, N-[(1S)-1-{3-[4-chloro-3-methanesulfonamido-1-(2,2,2-trifluoroethyl)-1H-indazol-7-yl]-7-[4-(difluoromethyl)pyrimidin-2-yl]-4-oxo-3,4-dihydroquinazolin-2-yl}-2-(3,5-difluorophenyl)ethyl]-2-[(2S,4R)-9-(difluoromethyl)-5,5-difluoro-7,8-diazatricyclo[4.3.0.0^2,^4]nona-1(6),8-dien-7-yl]acetamide]	> 500	0.063
COc1ccc(-c2ccc3c(=O)n(-c4ccc(Cl)c5c(NS(C)(=O)=O)nn(CC(F)F)c45)c([C@H](Cc4cc(F)cc(F)c4)NC(=O)Cn4nc(C(F)F)c5c4C(F)(F)[C@@H]4C[C@H]54)nc3c2)nn1 (atropisomer, axis not shown) [Example 129, N-[(1S)-1-{3-[4-chloro-1-(2,2-difluoroethyl)-3-methanesulfonamido-1H-indazol-7-yl]-7-(6-methoxypyridazin-3-yl)-4-oxo-3,4-dihydroquinazolin-2-yl}-2-(3,5-difluorophenyl)ethyl]-2-[(2S,4R)-9-(difluoromethyl)-5,5-difluoro-7,8-diazatricyclo[4.3.0.0^2,^4]nona-1(6),8-dien-7-yl]acetamide]	> 500	0.054
COc1cnc(-c2ccc3c(=O)n(-c4ccc(Cl)c5c(NS(C)(=O)=O)nn(C)c45)c([C@H](Cc4cc(F)cc(F)c4)NC(=O)Cn4nc(C(F)F)c5c4C(F)(F)[C@@H]4C[C@H]54)nc3c2)nc1 (atropisomer, axis not shown; (P)) [Example 34, N—((S)-1-((3P)-3-(4-chloro-1-methyl-3-(methylsulfonamido)-1H-indazol-7-yl)-7-(5-methoxypyrimidin-2-yl)-4-oxo-3,4-dihydroquinazolin-2-yl)-2-(3,5-difluorophenyl)ethyl)-2-((3bS,4aR)-3-(difluoromethyl)-5,5-difluoro-3b,4,4a,5-tetrahydro-1H-cyclopropa[3,4]cyclopenta[1,2-c]pyrazol-1-yl)acetamide]	> 500	0.058
CCc1cc(-c2ccc3c(=O)n(-c4ccc(C)c5c(NS(C)(=O)=O)nn(C)c45)c([C@H](Cc4cc(F)cc(F)c4)NC(=O)Cn4nc(C(F)F)c5c4C(F)(F)[C@@H]4C[C@H]54)nc3c2)nc(C)n1 (atropisomer, axis not shown) [Example 139, 2-[(2S,4R)-9-(difluoromethyl)-5,5-difluoro-7,8-diazatricyclo[4.3.0.0^2,^4]nona-1(6),8-dien-7-yl]-N-[(1S)-2-(3,5-difluorophenyl)-1-[7-(6-ethy1-2-methylpyrimidin-4-yl)-3-(3-methanesulfonamido-1,4-dimethyl-1H-indazol-7-yl)-4-oxo-3,4-dihydroquinazolin-2-yl]ethyl]acetamide]	> 500	0.13
Cc1ccc(-c2ccc3c(=O)n(-c4ccc(Cl)c5c(NS(C)(=O)=O)nn(CC(F)F)c45)c([C@H](Cc4cc(F)cc(F)c4)NC(=O)Cn4nc(C(F)F)c5c4C(F)(F)[C@@H]4C[C@H]54)nc3c2)nn1 (atropisomer, axis not shown) [Example 134, N-[(1S)-1-{3-[4-chloro-1-(2,2-difluoroethyl)-3-methanesulfonamido-1H-indazol-7-yl]-7-(6-methylpyridazin-3-yl)-4-oxo-3,4-dihydroquinazolin-2-yl}-2-(3,5-difluorophenyl)ethyl]-2-[(2S,4R)-9-(difluoromethyl)-5,5-difluoro-7,8-diazatricyclo[4.3.0.0^2,^4]nona-1(6),8-dien-7-yl]acetamide]	> 500	0.032
Cc1ncc(F)c(-c2ccc3c(=O)n(-c4ccc(C)c5c(NS(C)(=O)=O)nn(C)c45)c([C@H](Cc4cc(F)cc(F)c4)NC(=O)Cn4nc(C(F)F)c5c4C(F)(F)[C@@H]4C[C@H]54)nc3c2)n1 (atropisomer, axis not shown) [Example 140, 2-[(2S,4R)-9-(difluoromethyl)-5,5-difluoro-7,8-diazatricyclo[4.3.0.0^2,^4]nona-1(6),8-dien-7-yl]-N-[(1S)-2-(3,5-difluorophenyl)-1-[7-(5-fluoro-2-methylpyrimidin-4-yl)-3-(3-methanesulfonamido-1,4-dimethyl-1H-indazol-7-yl)-4-oxo-3,4-dihydroquinazolin-2-yl]ethyl]acetamide]	> 500	0.097
CCOc1cc(-c2ccc3c(=O)n(-c4ccc(Cl)c5c(NS(C)(=O)=O)nn(C)c45)c([C@H](Cc4cc(F)cc(F)c4)NC(=O)Cn4nc(C(F)F)c5c4C(F)(F)[C@@H]4C[C@H]54)nc3c2)nc(C)n1 (atropisomer, axis not shown; (P)) [Example 69, N—((S)-1-((3P)-3-(4-chloro-1-methyl-3-(methylsulfonamido)-1H-indazol-7-yl)-7-(6-ethoxy-2-methylpyrimidin-4-yl)-4-oxo-3,4-dihydroquinazolin-2-yl)-2-(3,5-difluorophenyl)ethyl)-2-((3bS,4aR)-3-(difluoromethyl)-5,5-difluoro-3b,4,4a,5-tetrahydro-1H-cyclopropa[3,4]cyclopenta[1,2-c]pyrazol-1-yl)acetamide]	> 500	0.43
CC(C)(C)S(=O)(=O)c1ccccc1-c1ccc2c(=O)n(-c3ccc(Cl)c4c(NS(=O)(=O)C5CC5)nn(CC(F)F)c34)c([C@H](Cc3cc(F)cc(F)c3)NC(=O)Cn3nc(C(F)F)c4c3C(F)(F)[C@@H]3C[C@H]43)nc2c1 (atropisomer, axis not shown) [Example 143]	> 500	0.28
